Source: article PMC7180948, “New Insights into 4-Anilinoquinazolines as Inhibitors of Cardiac Troponin I–Interacting Kinase (TNNi3K)” (Molecules, 2020)

What follows are compounds tested against T1, cardiac troponin I–interacting kinase (TNNi3K) (Homo sapiens, UniProt Q59H18) (assay: TNNi3K binding assay (Kd, n = […])).
T1 sequence (Q59H18 1-835): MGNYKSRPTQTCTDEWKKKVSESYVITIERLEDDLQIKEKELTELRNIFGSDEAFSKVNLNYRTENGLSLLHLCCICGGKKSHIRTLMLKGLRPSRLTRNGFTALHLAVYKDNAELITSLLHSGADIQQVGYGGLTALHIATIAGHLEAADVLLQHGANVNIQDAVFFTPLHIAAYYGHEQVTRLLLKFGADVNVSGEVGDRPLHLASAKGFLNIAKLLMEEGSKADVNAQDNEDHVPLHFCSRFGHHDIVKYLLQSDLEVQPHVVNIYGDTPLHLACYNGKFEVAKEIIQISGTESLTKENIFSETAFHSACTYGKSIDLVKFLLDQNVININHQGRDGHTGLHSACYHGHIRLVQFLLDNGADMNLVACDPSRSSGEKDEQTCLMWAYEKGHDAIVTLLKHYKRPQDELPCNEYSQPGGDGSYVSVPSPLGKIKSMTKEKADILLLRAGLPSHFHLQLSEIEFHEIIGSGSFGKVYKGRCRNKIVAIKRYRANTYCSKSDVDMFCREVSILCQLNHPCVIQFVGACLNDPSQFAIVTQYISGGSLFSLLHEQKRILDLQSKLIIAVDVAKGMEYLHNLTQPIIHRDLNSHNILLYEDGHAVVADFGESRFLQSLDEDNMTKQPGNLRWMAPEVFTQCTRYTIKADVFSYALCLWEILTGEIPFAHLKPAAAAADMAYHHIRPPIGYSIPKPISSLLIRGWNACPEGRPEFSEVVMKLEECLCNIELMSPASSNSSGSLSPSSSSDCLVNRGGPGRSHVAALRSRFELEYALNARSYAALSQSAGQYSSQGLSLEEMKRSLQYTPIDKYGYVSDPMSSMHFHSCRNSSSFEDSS

| SMILES | Kd [µM] |
| --- | --- |
| CNS(=O)(=O)c1cccc(Nc2ncnc3cc(OC)c(OC)cc23)c1 [compound 2, 3-((6,7-dimethoxyquinazolin-4-yl)amino)-N-methylbenzenesulfonamide] | 0.12 |
| CNS(=O)(=O)c1ccc(N(C)C)c(Nc2ncnc3ccc(OC)cc23)c1 [compound 16, 4-(dimethylamino)-3-((6-methoxyquinazolin-4-yl)amino)-N-methylbenzenesulfonamide] | 0.09 |
| CNS(=O)(=O)c1ccc(N(C)C)c(Nc2ncnc3cc(OC)ccc23)c1 [compound 17, 4-(dimethylamino)-3-((7-methoxyquinazolin-4-yl)amino)-N-methylbenzenesulfonamide] | 0.011 |
| COc1cc2ncnc(Nc3ccccc3N(C)C)c2cc1OC [compound 20, N^1-(6,7-dimethoxyquinazolin-4-yl)-N^2,N^2-dimethylbenzene-1,2-diamine] | 6.2 |
